Experimental findings from patent US4983614A, “Benzhydryloxyethylpiperidine derivatives, process for their preparation and pharmaceutical compositions, in which they are present” (priority 1986, dated 1991) are described below.

The subject of series [1] is pain syndrome caused by phenylbenzoquinone (PBQ). Description: Peripheral analgesic activity (phenylbenzoquinone-induced abdominal twisting). To be noted: Mus musculus, ip. In kind it is in vivo. The procedure: F--Peripheral analgesic activity
A peritoneal pain is caused in mice by the intraperitoneal injection of phenylbenzoquinone (PBQ). The test assesses the decrease in the pain syndrome, characterized by an abdominal twisting movement, which is caused by injecting the test product thirty minutes before the administration of PBQ.
The 50% effective dose is calculated from the percentage decrease in the pain syndrome relative to the control animals.

The test system of series [2] is lethal dose of histamine (histaminic shock). Description: Antihistaminic activity (protection from a lethal dose of histamine, histaminic shock). In kind it is in vivo. To be noted: Cavia porcellus, po; guinea-pig, p.o. by position of the head; histamine 1 mg/kg i.v. The procedure: K--Antihistaminic activity
This test assesses the dose which protects fifty per cent of guinea-pigs from a lethal dose of histamine.
The product is administered thirty minutes before the intravenous injection of histamine hydrochloride (1 mg/kg).
The 50% effective dose is calculated from the results obtained.

The test system of series [3] is histamine-induced bronchospasm. Description: Bronchospasm by inhalation of a histamine solution. In kind it is in vivo. The conditions noted are these: Cavia porcellus, guinea-pig. The procedure: J--Bronchospasm by inhalation of a histamine solution
Guinea-pigs are placed in a closed chamber into which histamine is introduced as an aerosol, and only those which show very distinct signs of asphyxia within four minutes are selected.
The substance to be studied is administered to groups of guinea-pigs thirty minutes before a further period in the chamber in order to check the resistance to histamine. A guinea-pig is considered to be protected if it resists the histamine aerosol for ten minutes without showing signs of asphyxia.
A 50% effective dose is calculated from the results obtained.

Series [4] has as its system contractions induced by histamine hydrochloride in isolated guinea-pig ileum. Description: Study on an isolated organ (guinea-pig ileum), antagonism of histamine contractions. To be noted: 35° C., Tyrode's solution. The method, then:
I--Study on an isolated organ (guinea-pig ileum)
This test assesses antagonism towards the contractions induced by histamine hydrochloride in isolated guinea-pig ileum kept at 35° C. in Tyrode's solution.

A short description of series [5]: Determination of the 50% lethal dose (LD50) in mice. To be noted: mouse, in vivo. The method, then: A. Determination of the 50% lethal dose (LD50) in mice
The derivatives studied were administered intraperitoneally and orally to groups made up of five male mice and five female mice, at a rate of 0.1 ml per ten grams of body weight.

Series [6] concerns anaphylactic shock. Description: Test for assessing the dose which protects 50% of guinea-pigs from anaphylactic shock. Type of series: in vivo. The conditions noted are these: Cavia porcellus, po; guinea-pig, p.o., 45 min before horse serum i.v.; read-out: ED50 protecting 50% of guinea-pigs from anaphylactic shock. The method, then:
L--Test for assessing the dose which protects 50% of guinea-pigs from anaphylactic shock
This test was carried out according to the following protocol:
Intraperitoneal administration to guinea-pigs of 2 ml of 20% horse serum in physiological solution for three days: D1, D3 and D5.
Trigger action: on D15, oral administration of the test product 45 minutes before the intravenous injection of 0.5 ml of pure horse serum.

Series [7] relates to rats. Description: Determination of the minimal lethal dose (MLD) in rats. Type of series: in vivo, rat. The conditions noted are these: male rats, doses 75 and 150 mg/kg. The procedure:
B. Determination of the minimal lethal dose (MLD) in rats
The derivatives studied were administered intraperitoneally to two groups made up of 5 male rats.
The following doses were used: 75 and 150 mg/kg.

Series [8] deals with exploration behavior of mice. Description: Exploration behavior (automated hole-board). Type of series: in vivo. To be noted: Mus musculus, ip, comparative test. The text has this:
Thirty minutes after the intraperitoneal administration of the derivatives according to the invention, each mouse is placed on an automated hole-board for five minutes and the number of holes explored is noted every minute.
(§1) A 50% effective dose can be calculated from the results obtained.

Series [9] deals with motor activity of mice. Description: Study of the spontaneous motility (motor activity, photoelectric actimeter). Type of series: in vivo, mouse. To be noted: i.p., comparative test, the number is the dose of the effect. The procedure: A--Study of the spontaneous motility
The motor activity of mice was determined with the aid of a Boissier and Simon photoelectric actimeter.
The mice are placed in groups of five in a box closed with a lid, through which two perpendicular light rays pass; the mice cut off these rays when they move.
These movements are measured by a counter, which is read after thirty minutes and one hour.

In series [10] the test system is sleep induced by pentobarbital. Description: Interaction with pentobarbital. The conditions noted are these: Mus musculus, ip, read-out: Interaction with pentobarbital ED50. In kind it is in vivo.
Text: E--Interaction with pentobarbital
as §1

Series [11] has as its system muscle-relaxing action in mice. Description: Muscle-relaxing action (traction test). In kind it is in vivo. To be noted: Mus musculus, ip, comparative test.
Text: D--Muscle-relaxing action (traction test)
This test assesses the presence or absence of redressments in a mouse brought up to a horizontal wire with its front paws.
The number of mice which are unable to grip the wire with one of their back paws within five seconds is noted.
as §1

[12] abbreviates: read-out: Peripheral analgesic activity (mouse) (ED50).
Where [13] appears, read: ip, i.p., first value under bronchospasm, read-out: Bronchospasm (guinea-pig) (ED50), i.p.
The mark [14] stands for this setting: po, second value under bronchospasm, p.o. by position, read-out: Bronchospasm (guinea-pig) (ED50), second value.

Counter-ions that a name gives are not always drawn. Like-named read-outs stand apart in the source and are kept apart here. Bounds are passed on as bounds.

As a reminder, the ED50 is the dose at which the effect has come halfway, by size or by number of responders. Usually LD50 stands for the dose expected to kill half of the subjects tested.

With `CCOC(=O)C=C1CCN(CCOC(c2ccccc2)c2ccccc2)CC1` [Example 2, ethyl 1-(benzhydryloxyethyl)piperidin-4-ylideneacetate], the ED50 in [1] (setting [12]) was 1.9 mg/kg; in [2], 0.25 mg/kg; in series [3] (setting [13]), 0.65 mg/kg; in series [3] (setting [14]), 0.21 mg/kg. Moreover, in [4], the “"In vitro" test (isolated ileum) (ED50)” value is more than 10 µg. Moreover, the 50% lethal dose (LD50) in series [5] (ip, read-out: LD50 (i.p.)) was found to be 300 mg/kg.
Take `CCOC(=O)CC1CCN(CCOC(c2ccccc2)c2ccccc2)CC1` [Example 3, maleate of ethyl 1-(benzhydryloxyethyl)piperidino-4-acetate]: the ED50 in series [1] (setting [12]) was 1.9 mg/kg; in series [6] it was 0.829 mg/kg; in series [2], 0.061 mg/kg; in series [3] (setting [13]), 0.097 mg/kg; in series [3] (setting [14]), 0.223 mg/kg. Moreover, the “"In vitro" test (isolated ileum) (ED50)” value in series [4] amounted to 8.0 µg. The LD50 in [5] (ip, read-out: LD50 (i.p.)) amounted to 160 mg/kg; in [5] (po, read-out: LD50 (p.o.)) it was 585 mg/kg. Also, the “MLD (i.p.)” value in [7] turned out to be 75 mg/kg.
On to `CCOC(=O)C1CCN(CCOC(c2ccccc2)c2ccccc2)CC1` [Example 4, fumarate of 4-carbethoxy-1-benzhydryloxyethylpiperidine], for which the results for the ED50 in series [2], in series [3] (setting [13]) and in series [3] (setting [14]) were 0.334 mg/kg, 0.46 mg/kg and 0.49 mg/kg, respectively. Further, in series [4], the “"In vitro" test (isolated ileum) (ED50)” value came to 5 µg. For the same molecule, the LD50 in [5] (ip, read-out: LD50 (i.p.)) is 456 mg/kg.
Turning to `CC(C)(C)c1ccc(C(O)CCCN2CCC(C(O)(c3ccccc3)c3ccccc3)CC2)cc1` (stereo not shown) [Terfenadine], the ED50 is 3.1 mg/kg in series [1] (mice, i.p., comparative test, read-out: Peripheral analgesic activity ED50); 37 mg/kg in [8]; 25 mg/kg in [10]; 31 mg/kg in series [11]. Further, the “Motor activity, significant decrease at” value in series [9] came to 25 mg/kg.
